The values that follow come from patent US20100303933A1, “IMMUNOPOTENTIATING COMPOSITION FROM LABISIA PUMILA EXTRACT” (HOLISTA BIOTECH SDN. BHD., priority 2007, published 2010).

Marks after values point to notes of the source that are not given here.

For test [1], the system named is reticuloendothelial system. As to the kind of experiment: Phagocytic response in vivo: clearance of carbon particles from circulation. Details: species or system mice. The following applies: dose 2.5 mg/ml p.o. (Levamisole). The method, then: The phagocytic function of the reticuloendothelial system was assayed in groups of six mice each by injecting i.v. 160 mg/kg of 1.6% suspension of gelatin stabilized carbon particles of […] size (Atal et al., 1986). Blood samples were collected before and at intervals varying between 2 to 90 min after carbon injection. An aliquot (10 μL) of blood samples were lysed with 2 mL of 0.1% acetic acid and the transparency determined spectrophotometrically at 675 nm (Uvikon 810, spectrophotometer, Kontron Ltd, Switzerland) as per the method of Hudson and Hay (1980).

For test [2], the system named is peritoneal murine macrophages. Briefly: Phagocytic response in vitro: heat killed Candida albicans ingested by peritoneal macrophages. The conditions noted are these: 10 μg/ml (Levamisole). It counts as cell-based.
Description: Peritoneal macrophage cells (2×10^6) were allowed to adhere to glass cover slip for 90 minutes at 37° C. in 5% CO2 incubator (95% humidity). Simultaneously heat killed Candida albicans cells (100° C., 60 minutes) were opsonized for 90 minutes with 20% autologous serum to promote phagocytosis. The samples were washed with PBS and immediately evaluated microscopically. The percentage and average number of Candida albicans cells (heat killed) ingested by peritoneal murine macrophages was calculated.
The test system of the next test is skin allograft. Briefly: Skin allograft rejection (CMI response). Format: in vivo, mice. The following applies: 2.5 mg/kg p.o. (Levamisole). As for the experimental part: Skin allograft rejection: Mice were employed for the skin transplantation that were administered LPPM/A003 daily for 7 days and the graft rejection time (GRT) was recorded by daily observation of the epithelial survival.

Take `c1ccc([C@H]2CN3CCSC3=N2)cc1` [Levamisole]: in test [1], the “% Phagocytosis Ex -In vivo study Mean ± S.E.” value came to 1.78 ± 0.11 %. Further, the “% Phagocytosis In vitro study Mean ± S.E.” value in test [2] stood at 43.11 ± 2.92 %. The “Rejection Time Days Mean ± S.E.” value with skin allograft was determined as 8.50 ± 0.22 days. For the same compound, the “Graft Rejection (Percent)” value with skin allograft (↑ hastened) was 34.61^b ↑ Percent.
